Assay results published in patent US20230150920A1, “SALTS AND SOLID FORMS OF 4-BROMO-2,5-DIMETHOXYPHENETHYLAMINE” (priority 2021, published 2023).
“Also recorded” adds a separate entry of the source.

Columns and labels:
TNF-α = assay: LPS-induced TNF-α release ex vivo in whole blood of dosed rats; design: species or system rat; settings: for TNF alpha levels, LPS low dose: LPS 1 μg/mL
Source text: The bacterial endotoxin lipopolysaccharide (LPS) induces a strong inflammatory response from normal animal immune systems. This response is triggered when LPS is recognized by the innate immune system via the Toll Like Receptor (TLR4) particularly those located on monocytes and macrophages although they are also located on a wide variety of other cell types. Stimulation of the TLR4 receptor leads to recruitment and activation of IL-1R associated kinase 1 (IRAK-1) initiating a series of signalling events in immunoregulatory pathways such as activation of NF kappa B, p38 MAP Kinase, ERK and JNK and AP-1. These changes promote gene transcription and thereby potentiate secretion of pro inflammatory factors such as TNF alpha and other cytokines (Fang et al., 2004).
Determination of the effects of novel agents against LPS-induced TNF alpha release ex vivo provides an assessment of whether the plasma level of compound achieved after administration to whole animal is capable of affecting the inflammatory response.
Dexamethasone disodium phosphate salt was formulated in water to a concentration of 0.6 mg free base/mL to give a dose of 3 mg free base/kg when orally administered in a 5 mL/kg dosing volume. 2C-B hydrochloride was formulated in Vehicle 1 (saline) at concentrations of […]. This provided doses of 0.1 and 1 mg/kg respectively when injected ip in 5 mL/kg dosing volumes. Ex vivo formulation
LPS were dissolved in saline to concentrations of 0.2 and 0.6 mg/mL. This will then be diluted 10 fold in saline to give concentrations of 0.02 and 0.06 mg/mL that will provide concentrations of 1 and 3 μg/mL when 15 uL is added to 285 of whole blood (20 fold dilution).
Twenty four male SD rats (approximately 200 g), were group housed. Animals were maintained under a 12 h light/dark cycle, where temperature and humidity are controlled. Animals were allowed free access to food and water.
Rats were allocated to treatment groups of 6 and habituated to the test room on the day prior to the study. On the test day, rats were dosed orally with either water or dexamethasone 3 mg/kg in 5 mL/kg dosing volumes. Thirty minutes later the animals were dosed intraperitoneally with either saline or 2C-B in 5 mL/kg dosing volumes. After a further 90 minutes terminal blood samples were collected by cardiac puncture under CO2. • Three aliquots, each of 285 μL from each animal's blood sample were pipetted into separate Eppendorf tubes. • Tubes were left for 10 min • Assay tubes will then be mixed gently before adding 15 μL of saline or LPS to give final concentrations of 1 and 3 μg/ml. • After a further gentle mixing, assay tubes were placed in an incubator at 37° C. for 24 h. • At the end of this time, the whole blood aliquots were spun down to plasma. The plasma were then removed and placed in duplicate 96 well plates on dry ice. Plates were stored at −20° C. until analyzed for TNF-α after 10-fold dilution.
The TNF-alpha content of the collected rat plasmas samples were measured using a Rat TNF-alpha Quantikine ELISA Kit (cat no RTA00).
A 1-way ANOVA was conducted across the vehicle and 3 treatment groups (0.1 mg/kg 2C-B IP, 1 mg/kg 2C-B IP, and 3 mg/kg dexamethasone PO) independently for 3 stimulation conditions (no stimulation [saline], 1 μg/mL LPS, and 3 μg/mL LPS). […] Each group was compared to the vehicle group and a p-value for treatment determined by Fishers Least Significant Difference (LSD) test, without statistical penalty for multiple comparisons. […]

Male Sprague-Dawley rats = assay: Rat elevated zero-maze model of anxiety; format: in vivo
Source text: The rat zero-maze model is a refined alternative to the plus-maze, the most widely used animal model of anxiety, and consists of an elevated annular platform, divided equally into four quadrants. Two opposite quadrants are enclosed by Perspex walls on both the inner and the outer edges of the platform, while the remaining two opposite quadrants are open being enclosed only by a Perspex “lip”. Animals will show a preference for the closed areas, and avoidance of the open sections is assumed to stem from a rodent's natural aversion to open, exposed spaces. A reduction in the amount of activity on the open areas is considered to reflect an increase in anxiety (shepherd 1994). The ethologically-based behavior rearing was also assessed as an index of anxiety with a decrease in rearing indicative of an […] effect [(a) File 1985, Boissier 1976; (b) File, S. E. (1985). What can be learned from the effects of benzodiazepines on exploratory behavior? Neuroscience & Biobehavioral Reviews, 9(1), 45-54. doi:10.1016/0149-7634(85)90031-4; (c) Boissier, J. R., P. Simon and P. Soubrie. New approaches to the study of anxiety and anxiolytic drugs in animals. […]
Subjects were weighed and tail marked before being injected. After a specified pre-treatment time, subjects were placed in a closed quadrant and a 5-min test period were recorded on videotape for subsequent analysis. […] Animals are scored as being in the open area when all four paws were in an open quadrant and in the closed area only when all four paws have passed over the open-closed divide. […]
30 male Sprague-Dawley rats in treatment groups of 5, was intraperitoneally dosed with either Vehicle 1 (saline) or 2C-B at 1 of 4 dose levels (0.1, 1, 2 & 5 mg/kg) or chlordiazepoxide (6 mg/kg) in 5 mL/kg injection volumes. Thirty min later at T=0, rats were individually placed in a closed arm of the zero-maze and behavior was assessed by a “blind” observer using remote video monitoring over the subsequent 5 min. […]
Data was analysed with Statistica software (Statsoft USA version 10.0). […]

[1] = Dynamic vapor sorption (DVS) with XRPD of the post-DVS sample; format: physicochemical
Method: Dynamic Vapor Sorption (DVS) analysis was carried out using a TA Instruments Q5000 Dynamic Vapor Sorption analyzer. The instrument was calibrated with standard weights and a sodium bromide standard for humidity. Approximately 10-25 mg of sample was loaded into a metal-coated quartz pan for analysis. The sample was analyzed at 25° C. with a maximum equilibration time of one hour in 10% relative humidity (RH) steps from 5 to 95% RH (adsorption cycle) and from 95 to 5% RH (desorption cycle). The movement from one step to the next occurred either after satisfying the equilibrium criterion of 0.01% weight change or, if the equilibrium criterion was not met, after one hour. The percent weight change values were calculated using Microsoft Excel.
(§1) The DVS analysis was carried out using a TA Instruments Q5000 Dynamic Vapor Sorption analyzer. 13.5 mg of sample was loaded into a metal-coated quartz pan for analysis. After equilibration to 5% relative humidity (RH), the sample was analyzed at 25° C. in 10% RH steps from 5 to 95% RH (adsorption cycle) and from 95 to 5% RH (desorption cycle). The movement from one step to the next occurred either after satisfying the equilibrium criterion of 0.01% weight change in 5 minutes or, if the equilibrium criterion was not met, after 90 minutes. The percent weight change values are calculated using Microsoft Excel®.
as §1, with “DVS analyses were” for “DVS analysis was”, “analyzer. Approximately 7-11” for “analyzer. 13.5”, “equilibration at” for “equilibration to”, “values were” for “values are”
as §1, with “analyzer. Approximately 2” for “analyzer. 13.5”, “equilibration at” for “equilibration to”, “values were” for “values are”

[2] = Dynamic vapor sorption/desorption (DVS), hygroscopicity; format: physicochemical
Method: The active pharmaceutical ingredient (API), 4-bromo-2,5-dimethoxyphenethylamine hydrochloride, is characterized to evaluate its physical properties. The evaluation is performed by X-ray powder diffraction (XRPD), polarized light microscopy (PLM), differential scanning calorimetry (DSC), thermogravimetry (TG), dynamic vapor sorption/desorption (DVS), and/or solubility testing in organic solvents, water, and mixed solvent systems. XRPD data are used to assess crystallinity. PLM data are used to evaluate crystallinity and particle size/morphology. DSC data are used to evaluate melting point, thermal stability, and crystalline form conversion. TG data are used to evaluate if the API is a solvate or hydrate, and to evaluate thermal stability. DVS data are used to evaluate hygroscopicity of the API and if hydrates can be formed at high relative humidity.
The form characterized in FIGS. 1 and 2 is designated as Form A herein. […] A sharp endotherm at 238° C. in the DSC thermogram is attributed to melting.

[3] = Water activity slurry experiments, 2C-B HCl Form A vs Form C; format: physicochemical; settings: slurry of Form A at ambient temperature

COc1cc(CCN)c(OC)cc1Br [2C-B, 4-bromo-2,5-dimethoxyphenethylamine]
TNF alpha levels, LPS low dose (TNF-α; 0.1 mg/kg ip): no difference vs placebo | TNF alpha levels, LPS low dose (TNF-α; 1 mg/kg ip): trended towards significance | TNF alpha levels, high level of LPS (TNF-α; 1 mg/kg ip, LPS 3 μg/ml, 1-way ANOVA): significant decrease in TNF alpha levels | TNF alpha levels in the absence of LPS (TNF-α; no stimulation (saline), 2C-B 0.1 and 1 mg/kg ip, dexamethasone 3 mg/kg po): no effect | amount of TNF alpha released in response to LPS (TNF-α; pre-treatment in vivo ip, LPS 1 and 3 μg/mL): reduced the amount of TNF alpha released in response to LPS | frequency of rearing (Male Sprague-Dawley rats; ip 1 mg/kg, 2 mg/kg, and 5 mg/kg doses): decreased the frequency of rearing as effectively as the benzodiazepine chlordiazepoxide | frequency of rearing (Male Sprague-Dawley rats; ip 5 mg/kg): greatest numerical effect | frequency of rearing (Male Sprague-Dawley rats; ip 0.1, 1, 2 & 5 mg/kg, 30 min before 5-min test): significantly reduced the number of rears in a dose dependent manner; also recorded: as effective as the chlordiazepoxide control

COc1cc(CCN)c(OC)cc1Br.Cl [Form A, 4-bromo-2,5-dimethoxyphenethylamine hydrochloride]
hygroscopicity based on DVS data ([1]; 25° C., 5 to 95% RH): slightly hygroscopic | behaviour on desorption / form change by XRPD of post-DVS sample ([1]; desorption 95 to 5% RH): loses all the gained moisture without form change | hygroscopicity based on DVS data [2]: slightly hygroscopic | Form change after moisture sorption/desorption (DVS) ([2]; loses all the gained moisture): without form change | water activities at which the form was obtained or remained unchanged ([3]; hydrochloride): ≤ 0.5

COc1cc(CCN)c(OC)cc1Br.Cl [Form C, 4-bromo-2,5-dimethoxyphenethylamine HCl]
water activities at which the form was obtained or remained unchanged ([3]; HCl): ≥ 0.6
